# Columns and labels:
# HCC-2998 = assay: NCI 60-cell panel dose-response; assay type: cell-based; settings: Homo sapiens; HCC-2998 (Colon cancer)
# HeLa cells = assay: Apoptosis: cleaved PARP and caspase 3 immunoblot, DNA fragmentation gel; assay type: cell-based, human; settings: 16 hours
# Protocol: It is well noted that DXR can induce cardiomyocyte death by apoptosis and necrosis. DXR is also involved in other types of cellular processes, such as autophagy and senescence/aging. To investigate induction of apoptosis caused by NSC745885, we adopted DXR as a positive control and examined the levels of cleaved PARP and caspase 3 as apoptotic indicators using immunoblot (FIG. 4A), as well as DNA fragmentation using agarose gel electrophoresis (FIG. 4B). HeLa cells were treated with either DXR or NSC745885 at various doses for 16 hours. Subsequently, the total cellular protein was extracted and immunoblotted with antibodies against the cleaved types of PARP and caspase 3. Additionally, genomic DNA was isolated and analyzed by 2% agarose gel electrophoresis followed by ethidium bromide staining. The results (FIG. 4A and FIG. 4B) are representative of three independent experiments. […] Treatment with NSC745885 decreased protein stability, an effect that appeared to be selective, and was confirmed in other immunoblot analyses (shown in FIG. 6A, lanes 1 and 6).
# (§1) Cell lysates were prepared in lysis buffer (100 mM Tris-HCl pH 8.0, 150 mM NaCl, 0.1% SDS, and 1% Triton 100) at 4° C., separated by sodium dodecyl sulfate-polyacrylamide gel electrophoresis (SDS-PAGE), and then transferred onto a polyvinylidine difluoride membrane (Millipore, USA). Proteins were detected using antibodies against alpha actinin (ACTN), proliferating cell nuclear antigen (PCNA), p53, p21, cyclin B1, and cyclin D1 (Santa Cruz Biotechnology, USA), YH2A.X (EP854(2)Y, Epitomics, USA), cleaved caspase 3, cleaved poly(ADP-ribose) polymerase (PARP) and LC3B-II (Cell signaling, USA).
# p53 and p21 = p53 and p21 protein expression, immunoblot; assay type: cell-based, human; settings: HeLa cells, 12 hours, immunoblot
# Protocol: as §1
# Cell cycle regulatory protein p21 is one of p53's targets. […] In this experiment, HeLa cells were treated with the indicated concentrations of DXR or NSC745885 for 12 hours and then assessed by immunoblot (FIG. 6A) and RT-PCR (FIG. 6B).
# In FIG. 6C, HeLa cells were treated with the indicated concentrations of NSC745885 for 12 hours; proteasome inhibitor MG132 (1 uM or 10 uM) was added 3 hours before harvesting. Cell protein extracts were tested with anti-p53 and anti-p21 antibodies. The results are representative of two independent experiments.
# [1] = tested on: p21 promoter reporter (p21-LUC); assay: p21 promoter reporter (p21-LUC) luciferase assay; assay type: cell-based, human; settings: HeLa cells, highest concentration
# Protocol: (§2) HeLa and HeLa/shp53 cells were grown in DMEM supplemented with 10% charcoal/dextran-treated fetal bovine serum. Cells in a 24-well plate were transfected with jetPEI (PolyPlus-transfection, France) according to the manufacturer's protocol; total DNA was adjusted to 1.0 μg by the addition of empty vector DNA. Luciferase assays were performed using the Promega Luciferase Assay kit, and the measurement was expressed numerically as relative light units (RLU). Luciferase activities were presented as means and standard deviation of two transfected sets. […] Instead, the reproducibility of the observed effects on luciferase activity was determined in multiple independent transfection experiments.
# HeLa cells infected with human papillomavirus and expressing the E6 oncoprotein, which maintains endogenous wild-type p53 at a very low concentration, are used as a model system for studying human cervical tumorigenesis. In order for us to confirm the effects of DXR and NSC745885 on endogenous p53, HeLa cells were transiently transfected with a p53-dependent reporter (pG13-LUC) (FIG. 7A) and a p21 promoter reporter (p21-LUC) (FIG. 7B), along with an expression vector for a well-known p53 activator (Zac1).
# HeLa/shp53 cells = assay: MTT cell viability assay, HeLa vs HeLa/shp53; assay type: cell-based, human; settings: endogenous p53 silenced; 24, 48, 72 hours
# Protocol: as §2
# To understand the functional role that endogenous p53 plays in the cytotoxic effects of DXR and NSC745885, we measured cell viability of HeLa or HeLa/shp53 cells using MTT cell viability assay. In this assay, endogenous p53 is silenced, both in the presence or absence of the drugs (FIG. 8). […]
# MBT2 = assay: Cell proliferation inhibition, bladder cancer cell line; assay type: cell-based; settings: MBT2 bladder cancer cells, 2.5 uM
# Text: (§3) To investigate the cell proliferation inhibition effect of NSC745885 in cancer cells, we compared the cancer cell proliferation inhibition effect of the NSC745885 with well-know bladder anti-cancer agent “Emodin” and clinical cancer chemical therapy agent “Doxorubicin”. The experiment bladder cancer cell lines includes T24 (FIG. 9A, 9D) and MBT2 (FIG. 9 B, 9E). We also confirm the NSC745885 cell toxicity using the non-cancer cell fibroblast 3T3 (FIG. 9C) and normal epithelial cell SV_UC—1 (FIG. 9F).
# T24 = assay: as above; assay type: cell-based; settings: T24 bladder cancer cells, 2.5 uM
# Text: as §3
# Stem Cell Factor (SCF) = assay: SCF protein expression in cells; assay type: cell-based
# Protocol: To investigate whether NSC745885 down-regulates SCF in cancer cells, we treated bladder cancer cell (MBT2, T24) and normal epithelial cell (SV_HUC—1) with NSC745885 for 24 hours and then analyzed the SCF protein level.
# We investigated NSC745885's effect on SCF expression in different cancer cells, including bladder cancer (MBT2, T24), breast cancer (MCF-7, MDA-MB-453), prostate cancer (PC3, LNCaP), kidney cancer (786-O), and kidney epithelial cell (293T). We treatment these different cancer cells with (+) or without (−) the NSC745885 (5 μM), and then analyzed SCF protein level.
# SAS cells = assay: SAS tumor xenograft in mouse; assay type: in vivo; settings: 2 mg/kg/day, 10 days
# Protocol: Furthermore, we tested the effects of NSC745885 on tumor size in mouse. This experiment had two animal groups: one is administered after tumor xenograft transplantation with PBS (Control, FIG. 13, Panel A) and the other with NSC745885 (2 mg/kg/day, FIG. 13, Panel B). The mice were euthanized after 10 days and the tumor tissues were immediately isolated. […] (FIG. 13, Panel C).
structure (smiles),measurement,setting,value
"O=C1c2ccccc2C(=O)c2c1ccc1nsnc21 [NSC745885, anthra[2,1-c][1,2,5]thiadiazole-6,11-dione]",GI50,HCC-2998,16.4 µM
same,protein levels of cleaved PARP and caspase 3 at high concentration,"HeLa cells; 25 μM, compared to DXR",dramatically decreased
same,"induction of apoptosis (cleaved PARP, caspase 3, DNA fragmentation)",HeLa cells; various doses,comparable effect
same,p53 and p21 protein levels,p53 and p21,decreased p21 as well as p53 in a concentration-dependent manner
same,p21 promoter reporter activity,[1],decreased p21 promoter reporter activity
same,"sensitivity (cell viability, MTT) in HeLa/shp53 versus HeLa cells",HeLa/shp53 cells,significantly enhanced
same,cancer cell proliferation inhibition,MBT2,distinct cancer cell proliferation inhibition ability
same,cancer cell proliferation inhibition,T24,distinct cancer cell proliferation inhibition ability
same,SCF protein level,"Stem Cell Factor (SCF); 5 μM, MBT2, T24, MCF-7, MDA-MB-453, PC3, LNCaP, 786-O, 293T",significantly decreased
same,SCF protein expression,"Stem Cell Factor (SCF); MBT2, T24 and SV_HUC—1 cells, 24 hours, increasing concentrations",suppressed
same,body weight,SAS cells,not significantly decreased
same,tumor size,SAS cells; versus PBS control,reduced
